Consider 5 molecules from ChEMBL document CHEMBL4842342, “Amidoxime prodrugs convert to potent cell-active multimodal inhibitors of the dengue virus protease” (Eur J Med Chem, 2021).

Activity calls are given as the source filed them. The rule behind the calls is not given here.

The subject of data set [1] is dengue virus type 2. As to the kind of experiment: Antiviral activity against Dengue virus 2 infected in human A549 cells assessed as reduction in viral titer production measured after 48 hrs by plaque reduction assay. The format is functional, organism-based. The settings on record: A549, 48 h. On the technique in general: Plaques are areas of infected cells; plaque reduction assays count them against a control.

Data set [2] concerns dengue virus type 2. As to the kind of experiment: Antiviral activity against Dengue virus 2 measured at 48 hrs post-infection. The settings on record: Dengue virus, 48 h; read-out: EC50. It counts as functional, organism-based.
In data set [3] the target is T1, Genome polyprotein (dengue virus type 2, UniProt P29990). The data set is described as follows: Inhibition of DENV2 NS2B-NS3 protease.
For data set [4], the system named is dengue virus type 2. The data set is described as follows: Antiviral activity against DENV2 infected in human Huh-7 cells assessed as log reduction in intracellular viral RNA synthesis at 10 uM treated at 6 hrs post-viral infection and measured after 12 hrs by real time RT-PCR method. It counts as functional. On the technique in general: In qPCR the cycle at which signal appears reflects the starting amount.

Data set [5] deals with dengue virus type 2. As to the kind of experiment: Antiviral activity against DENV2 infected in human Huh-7 cells assessed as log reduction in extracellular viral RNA synthesis at 10 uM treated at 6 hrs post-viral infection and measured after 48 hrs by real time RT-PCR method. The format is functional.
The subject of data set [6] is dengue virus type 2. As to the kind of experiment: Antiviral activity against DENV2 infected in human Huh-7 cells assessed as log reduction in intracellular viral RNA synthesis at 10 uM treated at 6 hrs post-viral infection and measured after 38 hrs by real time RT-PCR method. The format is functional.
Data set [7] relates to dengue virus type 2. As to the kind of experiment: Antiviral activity against DENV2 infected in human Huh-7 cells assessed as reduction in intracellular viral RNA synthesis at 10 uM treated at 6 hrs post-viral infection and measured after 48 hrs by real time RT-PCR method. The format is functional, organism-based.
Data set [8] has as its target Genome polyprotein (dengue virus type 2) (UniProt P29990). As to the kind of experiment: Inhibition of NS2B-NS3 protease in DENV2 infected in human Huh-7 cells assessed as inhibition of NS3 internal cleavage site at 10 uM treated 6 hrs […] viral infection and measured at 30 hrs post-infection by western blot analysis. The format is cell-based. The settings on record: time 24.0 hrs. On the technique in general: A western blot detects proteins with antibodies after separation by electrophoresis.

The test system of data set [9] is dengue virus type 2. As to the kind of experiment: Antiviral activity against DENV2 infected in human Huh-7 cells assessed as viral infection rate at 10 uM treated at 6 hrs post-viral infection and measured at 30 hrs post-infection by confocal microscopy (reference value: 50 to 60%). It counts as functional. The settings on record: time 24 hrs.
The target of data set [10] is Genome polyprotein (dengue virus type 2) (UniProt P29990). As to the kind of experiment: Inhibition of DENV2 NS2B-NS3 protease up to 200 uM. The settings on record: dose microM <=200.
The subject of another data set is Zika virus. The data set is described as follows: Antiviral activity against Zika virus. It counts as functional, organism-based.
Data set [11] is described as follows: Cytotoxicity against monkey LLC-MK2 cells assessed as reduction in cell viability by MTT assay. It counts as cell-based, Macaca mulatta. The settings on record: rhesus monkey.
The target in data set [12] is T1, Genome polyprotein. The data set is described as follows: Inhibition of DENV2 NS2B-NS3 protease assessed as inhibition of protease intermolecular processing.
The test system of the next data set is dengue virus type 4. The data set is described as follows: Antiviral activity against DENV4. The format is functional, organism-based.
The test system of data set [13] is dengue virus type 2. As to the kind of experiment: Antiviral activity against DENV2 D2Y10 virus infected in human PBMC cells in presence of 4G2 antibody. It counts as functional, organism-based.
The test system of data set [14] is dengue virus type 2. The data set is described as follows: Antiviral activity against DENV2. The format is functional, organism-based.
The subject of data set [15] is dengue virus type 2. The data set is described as follows: Antiviral activity against Dengue virus 2 EDEN2 infected in human Huh-7 cells. It counts as functional, organism-based. The settings on record: EDEN2, Huh-7.
The nature of data set [16]: Cytotoxicity against human Huh-7 cells assessed as reduction in cell viability. The format is cell-based.
In the next data set the test system is dengue virus type 3. The data set is described as follows: Antiviral activity against DENV3. The format is functional, organism-based.
The target in data set [17] is T1, Genome polyprotein. The data set is described as follows: Inhibition of NS2B-NS3 protease in DENV2 EDEN2 infected in human Huh-7 cells. The format is cell-based.
The nature of data set [18]: Cytotoxicity against human PBMC assessed as reduction in cell viability.
In the next data set the test system is dengue virus type 1. As to the kind of experiment: Antiviral activity against DENV1. The format is functional, organism-based.

For the molecule `O=C1C=C/C(=N/Nc2ccc([N+](=O)[O-])cc2Cl)C=C1C(=O)Nc1cccc(Cl)c1`, the EC50 (usually the concentration at which the effect is half-maximal) with dengue virus type 2 [1] was 0.81 µM.

Consider `COc1cccc(S(=O)(=O)n2c3ccc(-c4cccc(/C(N)=N/O)c4)cc3c3cc(-c4cccc(/C(N)=N/O)c4)ccc32)c1`, for which the EC50 in the data set with dengue virus type 2 [2] stood at 8.7 µM. The 50% inhibitory concentration (IC50) (in general, the midpoint of a concentration-inhibition curve) against Genome polyprotein [3] was “Not Active”. The “log(activity)” value is listed as 1 in the data set with dengue virus type 2 [4] and 2 in the data set with dengue virus type 2 [5]. Also, the outcome in the data set on dengue virus type 2 [6] and in the data set with dengue virus type 2 [7] was inactive. In data set [8], the inhibition entry was “Active”. The Activity in the data set with dengue virus type 2 [9] was 30%.

With `COc1cccc(Cn2c3ccc(-c4cccc(/C(N)=N/O)c4)cc3c3cc(-c4cccc(/C(N)=N/O)c4)ccc32)c1`, the inhibition result in data set [10] is “inactive”. In addition, the results for the EC50 in the data set with dengue virus type 2 [2] and in the data set on Zika virus were 1.8 µM and 8.7 µM, respectively.

Consider `O=C1c2c(O)ccc([N+](=O)[O-])c2C(=O)c2c([N+](=O)[O-])ccc(O)c21`, for which, in [11], the CC50 (usually the concentration at which the toxic effect on the cells reaches its halfway point) was 69.4 µM. Further, on Genome polyprotein [12], the IC50 turned out to be 432 µM.

For the molecule `N/C(=N\O)c1cccc(-c2ccc3c(c2)c2cc(-c4cccc(/C(N)=N/O)c4)ccc2n3Cc2cccc(Br)c2)c1`, the EC50 in the data set on dengue virus type 4 amounted to 1.7 µM; in the data set on dengue virus type 2 [13], 1.66 µM; with dengue virus type 2 [2] it was 1.1 µM; in the data set on dengue virus type 2 [14] it was 1.4 µM; in the data set on dengue virus type 2 [15] it was 1.1 µM; with dengue virus type 3 it was 5.1 µM. This molecule registered an EC50 in the data set with dengue virus type 1 of 5.9 µM. For the same molecule, the CC50 in [16] and in data set [18] was above 100 µM in each case. Further, the “log(activity)” value in the data set with dengue virus type 2 [4] is 2; in the data set on dengue virus type 2 [5], 3; in the data set on dengue virus type 2 [6], 2. Also, the IC50 against Genome polyprotein [17] was 18 µM. Also, the outcome in the data set on dengue virus type 2 [7] was inactive. In addition, the inhibition entry in [8] is “Active”. Moreover, the Activity with dengue virus type 2 [9] was found to be 10%.
